Laboratory results as given in the supplement of paper PMC10307832.

How the values were obtained:
Test in all cases: relative viability (nuclei count vs DMSO), 5 days (fraction); higher = more cells survive
[1] = compound: O=C1NC(=O)[C@@H](c2cn3c4c(cccc24)CCC3)[C@@H]1c1c[nH]c2ccccc12 [Tivantinib] + O=C(CCCCCCC(=O)Nc1ccccc1)NO [Vorinostat] (partner 1 µM)
Summary of the method: (§1)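 A single step with final 0.05% Triton X-100, 1% formaldehyde and 1 ug/ml Hoechst fixed the cells and stained nuclei 5 days after treatment. Lung cancer cell lines in 1536-well plates had been treated by pin tool the day after seeding with one drug alone or a fixed anchor-drug dose plus five library-drug doses (not always all listed) in √10 steps, and nuclei were counted on 4× images. Relative viability is the ratio of nuclei in treated wells to nuclei in vehicle wells, taken as the median of duplicate plates.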

[2] = compound: CC1(COc2ccc3c(c2)ncn3-c2ccc3cccc(N4CCC(N)CC4)c3n2)COC1 [Crenolanib] + O=C(c1cc(Cc2n[nH]c(=O)c3ccccc23)ccc1F)N1CCN(C(=O)C2CC2)CC1 [Olaparib] (partner 8 µM)
Summary of the method: as §1

[3] = compound: CC1(COc2ccc3c(c2)ncn3-c2ccc3cccc(N4CCC(N)CC4)c3n2)COC1 [Crenolanib] + Nc1nc2[nH]cc(CCc3ccc(C(=O)N[C@@H](CCC(=O)O)C(=O)O)cc3)c2c(=O)[nH]1 [Pemetrexed] (partner 0.2 µM)
Summary of the method: as §1

[4] = compound: O=C1NC(=O)[C@@H](c2cn3c4c(cccc24)CCC3)[C@@H]1c1c[nH]c2ccccc12 [Tivantinib] + CS(=O)(=O)N1CCN(Cc2cc3nc(-c4cccc5[nH]ncc45)nc(N4CCOCC4)c3s2)CC1 [Pictilisib] (partner 1 µM)
Summary of the method: as §1

Cell Line	relative viability ([1]; first compound 0.01 µM)	relative viability ([1]; first compound 0.03162 µM)	relative viability ([1]; first compound 0.1 µM)	relative viability ([1]; first compound 0.3162 µM)	relative viability ([2]; first compound 0.01 µM)	relative viability ([2]; first compound 0.03162 µM)	relative viability ([2]; first compound 0.1 µM)	relative viability ([2]; first compound 0.3162 µM)	relative viability ([2]; first compound 1 µM)	relative viability ([3]; first compound 0.01 µM)	relative viability ([3]; first compound 0.03162 µM)	relative viability ([3]; first compound 0.1 µM)	relative viability ([3]; first compound 0.3162 µM)	relative viability ([3]; first compound 1 µM)	relative viability ([4]; first compound 0.01 µM)	relative viability ([4]; first compound 0.03162 µM)	relative viability ([4]; first compound 0.1 µM)	relative viability ([4]; first compound 0.3162 µM)
NCI-H1666	1.04	0.915	1	0.913	0.764	0.717	0.723	0.692	0.749	0.886	0.855	0.855	0.921	0.831	0.552	0.352	0.43	0.401
NCI-H1734	0.8	0.745	0.768	0.818	0.617	0.676	0.568	0.7	0.605	0.441	0.423	0.423	0.395	0.38	0.479	0.395	0.416	0.469
NCI-H1755	0.861	0.793	0.695	0.917	0.919	0.801	0.845	0.898	0.848	0.468	0.43	0.416	0.499	0.453	0.462	0.417	0.39	0.355
NCI-H1793	0.851	0.875	0.663	0.474	0.993	0.947	0.889	1.13	0.762	1.02	0.912	0.835	1.08	0.993	0.353	0.42	0.437	–
NCI-H1915	0.492	0.496	0.49	0.568	0.267	0.278	0.266	0.283	0.244	0.536	0.481	0.511	0.528	0.531	0.902	0.92	0.93	1.04
NCI-H1944	0.565	0.448	0.501	0.492	0.404	0.387	0.412	0.413	0.397	0.735	0.646	0.562	0.837	0.542	0.308	0.294	0.332	0.369
NCI-H1975	0.752	0.754	0.685	0.77	0.768	0.699	0.73	0.726	0.731	0.306	0.316	0.289	0.284	0.312	0.283	0.304	0.281	0.259
NCI-H1993	0.84	0.704	0.728	0.66	1.16	1.13	1.07	1.15	0.937	0.606	0.591	0.549	0.559	0.544	0.817	0.857	0.843	0.902
NCI-H2009	0.735	0.672	0.746	0.715	0.694	0.672	0.694	0.682	0.555	1	1.06	1.07	0.966	0.847	0.875	0.464	0.767	0.763
NCI-H2023	0.698	0.676	0.62	0.516	0.53	0.467	0.476	0.451	0.322	0.206	0.238	0.231	0.239	0.234	0.246	0.225	0.218	0.202
NCI-H2085	0.805	0.673	0.752	0.669	–	0.752	0.714	0.782	0.784	–	0.88	0.878	0.936	0.949	0.477	0.471	0.392	0.515
NCI-H2087	0.724	0.672	0.722	0.477	0.602	0.643	0.547	0.671	0.623	0.719	0.7	0.684	0.555	0.675	0.958	0.757	0.909	0.896
NCI-H2126	0.723	0.482	0.772	0.512	0.928	0.91	0.893	0.994	0.952	0.725	0.678	0.694	0.715	0.605	0.51	0.446	0.496	0.478
NCI-H2170	0.852	0.812	0.74	–	0.608	0.674	0.54	0.711	0.671	0.366	0.266	0.276	0.286	0.271	0.298	0.222	0.33	–
NCI-H2228	0.639	0.527	0.651	0.733	0.76	0.833	0.684	1.13	0.686	0.3	0.33	0.34	0.337	0.324	0.405	0.345	0.458	0.413
